Where a SMILES comes first, the peptide text is derived from it. [ ]: non-standard residue; d: D form. The star is where a group is joined. Trp(5-OH) = N[C@@H](Cc1c[nH]c2ccc(O)cc12)C(=O)O; dTrp(5-OH) = N[C@H](Cc1c[nH]c2ccc(O)cc12)C(=O)O; Phe(3-Br) = N[C@@H](Cc1cccc(Br)c1)C(=O)O; dNMeW = CN[C@H](Cc1c[nH]c2ccccc12)C(=O)O; Fmoc = O=C(OCC1c2ccccc2-c2ccccc21)*; Ahp(2) = CCCCC[C@H](N)C(=O)O; Nle = CCCC[C@H](N)C(=O)O
Tests used:
[1] = target: T1, CCK-B receptors (CHO-CCK) (Homo sapiens, UniProt P32239); experiment: Calcium flux (Fluo-8) antagonist test on CHO-CCK model cells in presence of CCK8; format: cell-based
T1 construct: expressed in transfected cells; host or cells: CHO (CHO-CCK model cells)
T1 sequence (P32239 1-447): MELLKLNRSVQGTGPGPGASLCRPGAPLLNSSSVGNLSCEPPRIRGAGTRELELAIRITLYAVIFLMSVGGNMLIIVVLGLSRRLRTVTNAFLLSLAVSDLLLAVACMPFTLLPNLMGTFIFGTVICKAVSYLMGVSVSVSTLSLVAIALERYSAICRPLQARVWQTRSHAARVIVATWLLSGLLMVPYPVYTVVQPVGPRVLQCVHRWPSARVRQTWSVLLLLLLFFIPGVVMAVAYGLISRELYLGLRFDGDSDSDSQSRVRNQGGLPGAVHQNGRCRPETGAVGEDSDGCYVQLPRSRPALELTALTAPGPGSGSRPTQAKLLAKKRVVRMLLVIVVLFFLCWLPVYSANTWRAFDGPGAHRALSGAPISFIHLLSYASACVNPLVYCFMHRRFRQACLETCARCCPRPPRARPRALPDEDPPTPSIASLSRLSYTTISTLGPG

[2] = target: T1, CCK-B receptors (CHO-CCK); experiment: Calcium flux (Fluo-8) agonist test on CHO-CCK model cells; format: cell-based; conditions: CHO-CCK cells, Fluo-8 calcium flux
Procedure, shortened: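 Agonist-mode Fluo-8 calcium flux read on CHO-CCK cells after dye loading 30 min at 37 °C plus 30 min at room temperature.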

[3] = in presence of 10 nM CCK8, bound in μM

Row | SMILES | EC50 [1, 3] [µM] | EC50 ([2]; 100% control = 20 nM CCK8) [µM] | EC50 ([1]; in presence of 10 nM CCK8) [µM] | EC50 ([2]; bound in μM) [µM]
1 | CCCC[C@H](NC(=O)[C@H](Cc1c[nH]c2ccccc12)NC(C)=O)C(=O)N[C@@H](CC(=O)O)C(=O)N[C@@H](Cc1c(C)[nH]c2ccccc12)C(N)=O [HT-229, Ac-D-Trp-Nle-Asp-(2-Me-Trp)-NH2] | > 10 | 8.2 | – | –
2 | CCCC[C@H](NC(=O)[C@@H](Cc1cn(C)c2ccccc12)NC(C)=O)C(=O)N[C@@H](CC(=O)O)C(=O)N[C@@H](Cc1cn(C)c2ccccc12)C(N)=O [HT-232, Ac-(1-Me-Trp)-Nle-Asp-(1-Me-Trp)-NH2] | – | 0.376 | 3.28 | –
3 | CCCC[C@H](NC(=O)[C@@H](Cc1cn(C)c2ccccc12)NC(C)=O)C(=O)N[C@@H](CC(=O)O)C(=O)N[C@@H](Cc1c(C)[nH]c2ccccc12)C(N)=O [HT-233, Ac-(1-Me-Trp)-Nle-Asp-(2-Me-Trp)-NH2] | – | – | 3.65 | > 10
4 | CCCC[C@H](NC(=O)[C@@H](Cc1c(C)[nH]c2ccccc12)NC(C)=O)C(=O)N[C@@H](CC(=O)O)C(=O)N[C@@H](Cc1cn(C)c2ccccc12)C(N)=O [HT-234, Ac-(2-Me-Trp)-Nle-Asp-(1-Me-Trp)-NH2] | – | 5.46 | 4 | –
5 | CCCC[C@H](NC(=O)[C@@H](Cc1c(C)[nH]c2ccccc12)NC(C)=O)C(=O)N[C@@H](CC(=O)O)C(=O)N[C@@H](Cc1c(C)[nH]c2ccccc12)C(N)=O [HT-235, Ac-(2-Me-Trp)-Nle-Asp-(2-Me-Trp)-NH2] | > 10 | – | – | > 10
6 | CCCC[C@H](NC(=O)[C@@H](Cc1cccc(Br)c1)NC(C)=O)C(=O)N[C@@H](CCC(=O)O)C(=O)N[C@@H](Cc1cccc(Br)c1)C(N)=O [HT-237, Ac-Phe(3-Br)-Nle-Glu-Phe(3-Br)-NH2] | > 10 | – | – | > 10
7 | CCCC[C@H](NC(=O)[C@H](Cc1c[nH]c2ccccc12)NC(C)=O)C(=O)N[C@@H](CCC(=O)O)C(=O)N[C@@H](Cc1cccc(Br)c1)C(N)=O [HT-238, Ac-D-Trp-Nle-Glu-Phe(3-Br)-NH2] | – | 0.0344 | 28.2 | –
8 | CCCC[C@H](NC(=O)[C@H](Cc1c[nH]c2ccccc12)NC(C)=O)C(=O)N[C@@H](CCC(=O)O)C(=O)N[C@@H](Cc1c[nH]c2ccc(O)cc12)C(N)=O [HT-239, Ac-D-Trp-Nle-Glu-(5-HTP)-NH2] (Ac-W[Nle]E[Trp(5-OH)]-NH2) | > 10 | – | – | > 10
9 | CCCC[C@H](NC(=O)[C@@H](Cc1c[nH]c2ccc(O)cc12)NC(C)=O)C(=O)N[C@@H](CCC(=O)O)C(=O)N[C@@H](Cc1cccc(Br)c1)C(N)=O [HT-240, Ac-(5-HTP)-Nle-Glu-Phe(3-Br)-NH2] (Ac-[dTrp(5-OH)][Nle]E[Phe(3-Br)]-NH2) | > 10 | 0.527 | – | –
10 | CCCC[C@H](NC(=O)[C@H](Cc1c[nH]c2ccccc12)NC(C)=O)C(=O)N[C@@H](CCC(=O)O)C(=O)N[C@@H](Cc1cn(C)c2ccccc12)C(N)=O [HT-241, Ac-D-Trp-Nle-Glu-(1-Me-Trp)-NH2] | > 10 | 3.55 | – | –
11 | CCCC[C@H](NC(=O)[C@@H](Cc1cn(C)c2ccccc12)NC(C)=O)C(=O)N[C@@H](CCC(=O)O)C(=O)N[C@@H](Cc1cn(C)c2ccccc12)C(N)=O [HT-245, Ac-(1-Me-Trp)-Nle-Glu-(1-Me-Trp)-NH2] | – | – | 1.76 | > 10
12 | CCCC[C@H](NC(=O)[C@@H](Cc1cn(C)c2ccccc12)NC(C)=O)C(=O)N[C@@H](CCC(=O)O)C(=O)N[C@@H](Cc1c(C)[nH]c2ccccc12)C(N)=O [HT-246, Ac-(1-Me-Trp)-Nle-Glu-(2-Me-Trp)-NH2] | – | – | 2.13 | > 10
13 | CCCC[C@H](NC(=O)[C@@H](Cc1c[nH]c2ccccc12)N(C)C(=O)OCC1c2ccccc2-c2ccccc21)C(=O)N[C@@H](CC(=O)O)C(=O)N[C@@H](Cc1cccc(Br)c1)C(N)=O [HT-249, Fmoc-(N-Me-D-Trp)-Nle-Asp-Phe(3-Br)-NH2] (Fmoc-[dNMeW][Nle]D[Phe(3-Br)]-NH2) | – | 0.00226 | 4.55 | –
14 | CCCC[C@H](NC(=O)[C@H](Cc1c[nH]c2ccccc12)N(C)C(=O)CNC(=O)OCC1c2ccccc2-c2ccccc21)C(=O)N[C@@H](CC(=O)O)C(=O)N[C@@H](Cc1cccc(Br)c1)C(N)=O [HT-250, Fmoc-Gly-(N-Me-D-Trp)-Nle-Asp-Phe(3-Br)-NH2] | – | 0.386 | 2.85 | –
15 | CCCC[C@H](NC(=O)[C@@H](Cc1c[nH]c2ccccc12)N(C)C(=O)CNC(=O)OCC1c2ccccc2-c2ccccc21)C(=O)N[C@@H](CC(=O)O)C(=O)N[C@@H](Cc1cccc(Br)c1)C(N)=O [HT-251, Fmoc-Gly-(N-Me-Trp)-Nle-Asp Phe(3-Br)-NH2] | – | 0.00592 | 1.61 | –
16 | CCCC[C@H](NC(=O)[C@@H](Cc1c[nH]c2ccccc12)N(C)C(=O)OCC1c2ccccc2-c2ccccc21)C(=O)N[C@@H](CC(=O)OC)C(=O)N[C@@H](Cc1cccc(Br)c1)C(N)=O [HT-253, Fmoc-(N-Me-Trp)-Nle-Asp(O-Me)-Phe(3-Br)-NH2] (Fmoc-[dNMeW][Nle]D(OMe)[Phe(3-Br)]-NH2) | – | 0.744 | 1.92 | –

More lines, in order of falling EC50 ([1]; in presence of 10 nM CCK8), values ahead:

Row | EC50 [1, 3] [µM] | EC50 ([2]; 100% control = 20 nM CCK8) [µM] | EC50 ([1]; in presence of 10 nM CCK8) [µM] | EC50 ([2]; bound in μM) [µM] | SMILES
17 | – | 0.252 | 1.43 | – | CCCC[C@H](NC(=O)[C@@H](Cc1c(C)[nH]c2ccccc12)NC(C)=O)C(=O)N[C@@H](CC(=O)O)C(=O)N[C@@H](Cc1cccc(Br)c1)C(N)=O [HT-231, Ac-(2-Me-Trp)-Nle-Asp-Phe(3-Br)-NH2]
18 | – | 0.44 | 1.41 | – | CCCC[C@H](NC(=O)[C@@H](Cc1cn(C)c2ccccc12)NC(C)=O)C(=O)N[C@@H](CCC(=O)O)C(=O)N[C@@H](Cc1cccc(Br)c1)C(N)=O [HT-243, Ac-(1-Me-Trp)-Nle-Glu-Phe(3-Br)-NH2]
19 | – | 7.32 | 1.36 | – | CCCC[C@H](NC(=O)[C@@H](Cc1c(C)[nH]c2ccccc12)NC(C)=O)C(=O)N[C@@H](CCC(=O)O)C(=O)N[C@@H](Cc1cccc(Br)c1)C(N)=O [HT-244, Ac-(2-Me-Trp)-Nle-Glu-Phe(3-Br)-NH2]
20 | – | – | 1.31 | > 10 | CCCC[C@H](NC(=O)[C@H](Cc1c[nH]c2ccccc12)NC(C)=O)C(=O)N[C@@H](CCC(=O)O)C(=O)N[C@@H](Cc1c(C)[nH]c2ccccc12)C(N)=O [HT-242, Ac-D-Trp-Nle-Glu-(2-Me-Trp)-NH2]
21 | – | 0.0226 | 1.04 | – | CCCCC[C@H](NC(=O)[C@@H](Cc1c[nH]c2ccccc12)N(C)C(=O)OCC1c2ccccc2-c2ccccc21)C(=O)N[C@@H](CC(=O)OC)C(=O)N[C@@H](Cc1cccc(Br)c1)C(N)=O [HT-254, Fmoc-(N-Me-Trp)-Pa-Asp(O-Me)-Phe(3-Br)-NH2] (Fmoc-[dNMeW][Ahp(2)]D(OMe)[Phe(3-Br)]-NH2)
22 | – | 0.0226 | 1.04 | – | CCCCC[C@H](NC(=O)[C@@H](Cc1c[nH]c2ccccc12)N(C)C(=O)OCC1c2ccccc2-c2ccccc21)C(=O)N[C@@H](CC(=O)O)C(=O)N[C@@H](Cc1cccc(Br)c1)C(N)=O [HT-258, Fmoc-(N-Me-Trp)-Pa-Asp-Phe(3-Br)-NH2] (Fmoc-[dNMeW][Ahp(2)]D[Phe(3-Br)]-NH2)
23 | – | 0.255 | 1.03 | – | CCCC[C@H](NC(=O)[C@@H](Cc1c[nH]c2ccccc12)N(C)C(=O)CN(C)C(=O)OCC1c2ccccc2-c2ccccc21)C(=O)N[C@@H](CC(=O)O)C(=O)N[C@@H](Cc1cccc(Br)c1)C(N)=O [HT-252, Fmoc-(N-Me-Gly)-(N-Me-Trp)-Nle-Asp-Phe(3-Br)-NH2]
24 | – | 1.9 | 0.62 | – | CCCC[C@H](NC(=O)[C@@H](Cc1c(C)[nH]c2ccccc12)NC(C)=O)C(=O)N[C@@H](CCC(=O)O)C(=O)N[C@@H](Cc1cn(C)c2ccccc12)C(N)=O [HT-247, Ac-(2-Me-Trp)-Nle-Glu-(1-Me-Trp)-NH2]
25 | – | 0.0331 | 0.47 | – | CCCC[C@H](NC(=O)[C@@H](Cc1c(C)[nH]c2ccccc12)NC(C)=O)C(=O)N[C@@H](CCC(=O)O)C(=O)N[C@@H](Cc1c(C)[nH]c2ccccc12)C(N)=O [HT-248, Ac-(2-Me-Trp)-Nle-Glu-(2-Me-Trp)-NH2]
26 | – | 0.0977 | 0.357 | – | CCCC[C@H](NC(=O)[C@@H](Cc1cccc(Br)c1)NC(C)=O)C(=O)N[C@@H](CC(=O)O)C(=O)N[C@@H](Cc1cccc(Br)c1)C(N)=O [HT-236, Ac-Phe(3-Br)-Nle-Asp-Phe(3-Br)-NH2]
27 | – | 0.00334 | 0.132 | – | CCCCC[C@H](NC(=O)[C@@H](Cc1c[nH]c2ccccc12)NC(C)=O)C(=O)N[C@@H](CC(=O)O)C(=O)N[C@@H](Cc1cccc(Br)c1)C(N)=O [HT-257, Ac-D-Trp-Pa-Asp-Phe(3-Br)-NH2] (Ac-[dW][Ahp(2)]D[Phe(3-Br)]-NH2)
28 | – | 0.00192 | 0.0575 | – | CCCC[C@H](NC(=O)[C@@H](Cc1cn(C)c2ccccc12)NC(C)=O)C(=O)N[C@@H](CC(=O)O)C(=O)N[C@@H](Cc1cccc(Br)c1)C(N)=O [HT-230, Ac-(1-Me-Trp)-Nle-Asp-Phe(3-Br)-NH2]
29 | – | 0.000672 | 0.0419 | – | CSCC[C@H](NC(=O)[C@@H](Cc1cc2ccccc2[nH]1)NC(=O)[C@@]1(O)C[C@@H](O)[C@H](NC(C)=O)C([C@@H](O)[C@@H](O)CO)O1)C(=O)N[C@@H](CC(=O)O)C(=O)N[C@@H](Cc1cccc(Br)c1)C(N)=O (stereo partly drawn) [HT-256, Sia-D-Trp-Met-Asp-Phe(3-Br)-NH2]
30 | – | 0.000569 | 0.0403 | – | CSCC[C@H](NC(=O)[C@@H](Cc1cc2ccccc2[nH]1)NC(=O)[C@@H](N)CCC(=O)O)C(=O)N[C@@H](CC(=O)O)C(=O)N[C@@H](Cc1cccc(Br)c1)C(N)=O [HT-255, Glu-D-Trp-Met-Asp-Phe(3-Br)-NH2]
